The subject of the data set is CCRIS mutagenicity, Ames/micronucleus/aberration tests. Put plainly: CCRIS mutagenicity studies.
Setting [1] is: Test System: AMES SALMONELLA TYPHIMURIUM, Strain/Indicator: TA100, Metabolic Activation: NONE, Method: PREINCUBATION
Setting [2] is: Test System: AMES SALMONELLA TYPHIMURIUM, Strain/Indicator: TA98, Metabolic Activation: NONE, Method: STANDARD PLATE.
Where [3] appears, read: Test System: AMES SALMONELLA TYPHIMURIUM, Strain/Indicator: TA98, Metabolic Activation: RAT, LIVER, S-9, AROCLOR 1254, Method: STANDARD PLATE.
Where [4] appears, read: Test System: AMES SALMONELLA TYPHIMURIUM, Strain/Indicator: TA98, Metabolic Activation: RAT, LIVER, S-9, PHENOBARBITAL, Method: STANDARD PLATE.
The mark [5] stands for this setting: Test System: AMES SALMONELLA TYPHIMURIUM, Strain/Indicator: TA100, Metabolic Activation: NONE, Method: STANDARD PLATE.
Setting [6] is: Test System: AMES SALMONELLA TYPHIMURIUM, Strain/Indicator: TA100, Metabolic Activation: RAT, LIVER, S-9, PHENOBARBITAL, Method: STANDARD PLATE.
Setting [7] is: Test System: AMES SALMONELLA TYPHIMURIUM, Strain/Indicator: TA100, Metabolic Activation: RAT, LIVER, S-9, AROCLOR 1254, Method: STANDARD PLATE.
[8] abbreviates: Test System: AMES SALMONELLA TYPHIMURIUM, Strain/Indicator: TA102, Metabolic Activation: NONE, Method: STANDARD PLATE.

Calls of active or inactive are those of the source. The rule behind the calls is not given here.

The values below come from PubChem BioAssay AID1259407 (Chemical Carcinogenesis Research Information System (CCRIS), 2018).

On to `COc1ccc2c(CBr)cc(=O)oc2c1`, for which the mutagenic call is, setting by setting: (Test System: AMES SALMONELLA TYPHIMURIUM, Strain/Indicator: TA98, Metabolic Activation: NONE, Method: PREINCUBATION) “inactive; negative”; (Test System: AMES SALMONELLA TYPHIMURIUM, Strain/Indicator: TA98, Metabolic Activation: RAT, LIVER, S-9, PCB, Method: PREINCUBATION) “inactive; negative”; under setting [1], “inactive; negative”; (Test System: AMES SALMONELLA TYPHIMURIUM, Strain/Indicator: TA100, Metabolic Activation: RAT, LIVER, S-9, PCB, Method: PREINCUBATION) “inactive; negative”; (Test System: E. COLI, Strain/Indicator: WP2 UVRA, Metabolic Activation: NONE, Method: PREINCUBATION) “inactive; negative”.

`Nc1ccc(Sc2ccccc2)cc1`: the mutagenic call is, setting by setting: under setting [2], “inactive; negative”; under setting [3], “active; positive”.

With `CO[C@]1(CC[C@@H](C)CO[C@@H]2O[C@H](CO)[C@@H](O)[C@H](O)[C@H]2O)O[C@H]2C[C@H]3[C@@H]4CC=C5C[C@@H](O[C@@H]6O[C@H](CO)[C@@H](O[C@@H]7O[C@@H](C)[C@H](O)[C@@H](O)[C@H]7O)[C@H](O)C6O[C@@H]6O[C@@H](C)[C@H](O)[C@@H](O)[C@H]6O)CC[C@]5(C)[C@H]4CC[C@]3(C)[C@H]2[C@@H]1C` (some centres undefined), the mutagenic call is “inactive; negative” under setting [2], “inactive; negative” under setting [4], “inactive; negative” under setting [5] and “inactive; negative” under setting [6].

Consider `O=c1[nH]c(=O)n([C@H]2C[C@H](O)[C@@H](CO)O2)cc1CO`, for which the mutagenic call was “inactive; negative” under setting [2]; “inactive; negative” under setting [3]; “active; positive” under setting [5]; “active; positive” under setting [7]; “active; positive” under setting [8]; “inactive; negative” (Test System: AMES SALMONELLA TYPHIMURIUM, Strain/Indicator: TA1537, Metabolic Activation: NONE, Method: STANDARD PLATE). For the same molecule, the mutagenic call runs as follows: (Test System: AMES SALMONELLA TYPHIMURIUM, Strain/Indicator: TA1537, Metabolic Activation: RAT, LIVER, S-9, AROCLOR 1254, Method: STANDARD PLATE) “inactive; negative”; (Test System: CHINESE HAMSTER V-79, Strain/Indicator: V-79/6-THIOGUANINE, Metabolic Activation: NONE) “active; positive”; (Test System: CHINESE HAMSTER V-79, Strain/Indicator: V-79/OUABAIN, Metabolic Activation: NONE) “inactive; negative”.

Regarding `COc1cc2c(c3oc4cccc(O)c4c(=O)c13)[C@@H]1C=CO[C@@H]1O2`, the mutagenic call by setting is: (End Point: IN VITRO MICRONUCLEUS, Test System: AHH-1 CELLS, Metabolic Activation: NONE) “active; positive”; (End Point: IN VITRO MICRONUCLEUS, Test System: MCL-5 CELLS, Metabolic Activation: NONE) “active; positive”; (Test System: AMES SALMONELLA TYPHIMURIUM, Strain/Indicator: TA98, Metabolic Activation: R,L,S-9, PHENOBARBITAL, Method: STANDARD PLATE) “inactive; negative”; (Test System: AMES SALMONELLA TYPHIMURIUM, Strain/Indicator: TA98, Metabolic Activation: RAT, LIVER, MICROSOMES, PHENOBARBITAL, Method: STANDARD PLATE) “active; positive”; under setting [3], “active; positive”; (Test System: AMES SALMONELLA TYPHIMURIUM, Strain/Indicator: TA98, Metabolic Activation: RAT, LIVER, S-9, KC500 OR PHENOBARBITAL, Method: LIQUID SUSPENSION) “active; positive”. The mutagenic call reads like this: under setting [4], “inactive; negative”; under setting [1], “active; positive”; (Test System: AMES SALMONELLA TYPHIMURIUM, Strain/Indicator: TA100, Metabolic Activation: R,L,S-9, PHENOBARBITAL, Method: STANDARD PLATE) “active; positive”; (Test System: AMES SALMONELLA TYPHIMURIUM, Strain/Indicator: TA100, Metabolic Activation: RAT, LIVER, MICROSOMES, PHENOBARBITAL, Method: STANDARD PLATE) “active; positive”; under setting [7], “active; positive”; (Test System: AMES SALMONELLA TYPHIMURIUM, Strain/Indicator: TA100, Metabolic Activation: RAT, LIVER, S-9, KC500 OR PHENOBARBITAL, Method: LIQUID SUSPENSION) “active; positive”. Further, the mutagenic call is “active; positive” (Test System: AMES SALMONELLA TYPHIMURIUM, Strain/Indicator: TA100, Metabolic Activation: RAT, LIVER, S-9, PHENOBARBITAL, Method: PREINCUBATION); “active; positive” under setting [6]; “active; positive” (Test System: AMES SALMONELLA TYPHIMURIUM, Strain/Indicator: TA1538, Metabolic Activation: RAT, LIVER, S-9, AROCLOR 1254, Method: STANDARD PLATE); “active; positive” (Test System: UDS HUMAN CELLS, Strain/Indicator: THY INCORP (NON-S-PHASE), Metabolic Activation: RAT, LIVER, S-9, PHENOBARBITAL, Method: LIQUID SCINTILLATION COUNTING); “active; positive” (Test System: UDS HUMAN FIBROBLASTS, Strain/Indicator: THY INCORP (NON-S-PHASE), Metabolic Activation: MOUSE, LIVER, S-9, Method: AUTORADIOGRAPHY).

As for `CCN(N)c1ccccc1`, the mutagenic call is “active; positive” under setting [5]; “inactive; negative” under setting [7]; “inactive; negative” under setting [8]; “active; positive” (Test System: AMES SALMONELLA TYPHIMURIUM, Strain/Indicator: TA102, Metabolic Activation: RAT, LIVER, S-9, AROCLOR 1254, Method: STANDARD PLATE).

`NC(=O)N(CC(=O)O)N=O`: the mutagenic call by setting is: (Test System: E. COLI B, Strain/Indicator: H/R30R, Metabolic Activation: NONE) “active; positive”; (Test System: E. COLI B, Strain/Indicator: HS30R, Metabolic Activation: NONE) “active; positive”.

Turning to `COc1cc2c(cc1O)CC[C@@H]1[C@@H]2CC[C@]2(C)[C@@H](O)CC[C@@H]12`, the mutagenic call (Test System: Mouse lymphoma, Strain/Indicator: L5178Y (tk+/tk-), Metabolic Activation: Rat, Liver, S-9, Aroclor 1254, Method: Suspension/plate) is “active; equivocal (previous evaluation positive)”.
